Counter-ions that a name gives are not always drawn.
Biological target: T1, HCV polymerase (Hepatitis C virus genotype 1b, UniProt P26663)
T1 construct: a region encoding NS5B (J Virol 1991 March, 65(3), 1105-13, 544 amino acids after deletion of 47 amino acids on the C-terminal); 6xHis (C); made in house; host or cells: Escherichia coli
Test: biochemical
Parameters: species or system HCV BK strain
Method in brief: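 Recombinant HCV BK-strain NS5B (C-terminal 47 aa deleted, His6-tagged, E. coli), 0.5 μg/ml, run with 5 μg/ml in vitro-transcribed RNA template (polyU/3′X), ATP/GTP/CTP 50 μM, UTP 2 μM plus [3H]UTP, pH 7.5, 25° C, 90 min. TCA-precipitated RNA counted by scintillation; IC50 from activity with vs without compound.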

T1 sequence (P26663 2420-2963): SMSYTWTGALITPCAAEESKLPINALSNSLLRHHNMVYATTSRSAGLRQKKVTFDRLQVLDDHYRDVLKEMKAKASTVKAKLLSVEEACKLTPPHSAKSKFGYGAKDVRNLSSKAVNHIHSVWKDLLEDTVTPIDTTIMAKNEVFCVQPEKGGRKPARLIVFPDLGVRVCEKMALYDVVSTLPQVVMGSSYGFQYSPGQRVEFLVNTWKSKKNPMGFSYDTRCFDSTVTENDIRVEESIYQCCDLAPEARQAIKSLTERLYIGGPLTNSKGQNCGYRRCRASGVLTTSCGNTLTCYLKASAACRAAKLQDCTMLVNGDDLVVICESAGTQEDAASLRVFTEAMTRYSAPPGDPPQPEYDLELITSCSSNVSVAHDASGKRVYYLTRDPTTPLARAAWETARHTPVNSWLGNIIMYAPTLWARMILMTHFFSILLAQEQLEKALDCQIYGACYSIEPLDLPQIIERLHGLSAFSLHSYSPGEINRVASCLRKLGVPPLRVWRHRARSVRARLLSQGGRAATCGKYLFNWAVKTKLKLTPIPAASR

Compound	IC50 [nM]
O=C(O)c1ccc2c(C3CCCCC3)c3n(c2c1)CCOc1c(CCN2CCCCC2)cccc1-3 [Example 2-464, 12-cyclohexyl-4-[2-(piperidin-1-yl)ethyl]-6,7-dihydro-5-oxa-7a-azadibenzo[a,e]azulene-9-carboxylic acid monohydrochloride]	< 100
O=C(O)c1ccc2c(C3CCCCC3)c3n(c2c1)CCN(CCN1CCCCC1)c1ccc(F)cc1-3 [Example 1-18, 13-cyclohexyl-2-fluoro-5-[2-(piperidin-1-yl)ethyl]-6,7-dihydro-5H-benzo[5,6][1,4]diazepino[7,1-a]indole-10-carboxylic acid dihydrochloride]	< 100
CCc1ccc2c(c1)N(CCC1CCCN(C(C)C)C1)CCn1c-2c(C2CCCCC2)c2ccc(C(=O)O)cc21 (stereo not shown) [Example 1-369, 13-cyclohexyl-3-ethyl-5-[2-(1-isopropylpiperidin-3-yl)ethyl]-6,7-dihydro-5H-benzo[5,6][1,4]diazepino[7,1-a]indole-10-carboxylic acid]	< 100
CNC(=O)c1ccc2c(C3CCCCC3)c3n(c2c1)CCOc1ccccc1-3 [Example 2-173, N-methyl-12-cyclohexyl-6,7-dihydro-5-oxa-7a-azadibenzo[a,e]azulene-9-carboxamide]	< 100
CN1CCC(OCCN2CCn3c(c(C4CCCCC4)c4ccc(C(=O)O)cc43)-c3ccc(Cl)cc32)CC1 [Example 1-262, 3-chloro-13-cyclohexyl-5-[2-(1-methylpiperidin-4-yloxy)ethyl]-6,7-dihydro-5H-benzo[5,6][1,4]diazepino[7,1-a]indole-10-carboxylic acid dihydrochloride]	< 100
Cc1ccc2c(c1)NCCn1c-2c(C2CCCCC2)c2ccc(S(N)(=O)=O)cc21 [Example 1-506, 13-cyclohexyl-3-methyl-6,7-dihydro-5H-benzo[5,6][1,4]diazepino[7,1-a]indole-10-sulfonamide]	100 to 1000
Cc1ccc2c(c1)N(CCN1CCC(C)CC1)CCn1c-2c(C2CCCCC2)c2ccc(C(=O)O)cc21 [Example 1-259, 13-cyclohexyl-3-methyl-5-[2-(4-methylpiperidin-1-yl)ethyl]-6,7-dihydro-5H-benzo[5,6][1,4]diazepino[7,1-a]indole-10-carboxylic acid dihydrochloride]	< 100
O=C(O)c1ccc2c(C3CCCCC3)c3n(c2c1)CCN(CCCCN1CCCCC1)c1cc(Cl)ccc1-3 [Example 1-415, 3-chloro-13-cyclohexyl-5-[4-(piperidin-1-yl)butyl]-6,7-dihydro-5H-benzo[5,6][1,4]diazepino[7,1-a]indole-10-carboxylic acid]	< 100
COCCC1CCCN(CCN2CCn3c(c(C4CCCCC4)c4ccc(C(=O)O)cc43)-c3ccc(Cl)cc32)C1 (stereo not shown) [Example 1-307, 3-chloro-13-cyclohexyl-5-{2-[3-(2-methoxyethyl)piperidin-1-yl]ethyl}-6,7-dihydro-5H-benzo[5,6][1,4]diazepino[7,1-a]indole-10-carboxylic acid dihydrochloride]	< 100
Cc1ccc2c(c1)N(CCc1nc(C)cs1)CCn1c-2c(C2CCCCC2)c2ccc(C(=O)O)cc21 [Example 1-588, 13-cyclohexyl-3-methyl-5-[2-(4-methylthiazol-2-yl)ethyl]-6,7-dihydro-5H-benzo[5,6][1,4]diazepino[7,1-a]indole-10-carboxylic acid]	< 100
COCCOc1ccc2c(c1)N(CCN1CCCCC1)CCn1c-2c(C2CCCCC2)c2ccc(C(=O)O)cc21 [Example 1-546, 13-cyclohexyl-3-(2-methoxyethoxy)-5-[2-(piperidin-1-yl)ethyl]-6,7-dihydro-5H-benzo[5,6][1,4]diazepino[7,1-a]indole-10-carboxylic acid dihydrochloride]	< 100
CN1CCn2c(c(C3CCCCC3)c3ccc(C(=O)O)cc32)-c2ccc(OCCN3CCCCC3)cc21 [Example 1-437, 13-cyclohexyl-5-methyl-3-[2-(piperidin-1-yl)ethoxy]-6,7-dihydro-5H-benzo[5,6][1,4]diazepino[7,1-a]indole-10-carboxylic acid dihydrochloride]	< 100
CN(CCN1CCn2c(c(C3CCCCC3)c3ccc(C(=O)O)cc32)-c2ccccc21)C1CCN(S(C)(=O)=O)C1 (stereo not shown) [Example 1-252, 13-cyclohexyl-5-{2-[N-(1-methanesulfonylpyrrolidin-3-yl)-N-methylamino]ethyl}-6,7-dihydro-5H-benzo[5,6][1,4]diazepino[7,1-a]indole-10-carboxylic-acid]	< 100
CCN(CC)CCCCN1CCn2c(c(C3CCCCC3)c3ccc(C(=O)O)cc32)-c2ccc(Cl)cc21 [Example 1-424, 3-chloro-13-cyclohexyl-5-(4-diethylaminobutyl)-6,7-dihydro-5H-benzo[5,6][1,4]diazepino[7,1-a]indole-10-carboxylic acid]	< 100
CN1CCN(CCN2CCn3c(c(C4CCCCC4)c4ccc(C(=O)O)cc43)-c3ccccc32)CC1 [Example 1-52, 13-cyclohexyl-5-[2-(4-methylpiperazin-1-yl)ethyl]-6,7-dihydro-5H-benzo[5,6][1,4]diazepino[7,1-a]indole-10-carboxylic acid trihydrochloride]	< 100
CC(C)c1ccc2c(c1)N(CCN1CCCCC1)CCn1c-2c(C2CCCCC2)c2ccc(C(=O)O)cc21 [Example 1-296, 13-cyclohexyl-3-isopropyl-5-[2-(piperidin-1-yl)ethyl]-6,7-dihydro-5H-benzo[5,6][1,4]diazepino[7,1-a]indole-10-carboxylic acid dihydrochloride]	< 100
CC1CCN(CCN2CCn3c(c(C4CCCCC4)c4ccc(C(=O)O)cc43)-c3ccccc32)C1 (stereo not shown) [Example 1-237, 13-cyclohexyl-5-[2-(3-methylpyrrolidin-1-yl)ethyl]-6,7-dihydro-5H-benzo[5,6][1,4]diazepino[7,1-a]indole-10-carboxylic acid dihydrochloride]	< 100
COC1CCCN(C(=O)CN2CCn3c(c(C4CCCCC4)c4ccc(C(=O)O)cc43)-c3ccccc32)C1 (stereo not shown) [Example 1-125, 13-cyclohexyl-5-[2-(3-methoxypiperidin-1-yl)-2-oxoethyl]-6,7-dihydro-5H-benzo[5,6][1,4]diazepino[7,1-a]indole-10-carboxylic acid monohydrochloride]	< 100
CS(=O)(=O)c1ccc(N2CCOCC2)c(COc2ccc3c(c2)OCCn2c-3c(C3CCCCC3)c3ccc(C(=O)O)nc32)c1 [Example 7-5, 12-cyclohexyl-3-[5-methanesulfonyl-2-(morpholin-4-yl)benzyloxy]-6,7-dihydro-5-oxa-7a,8-diazadibenzo[a,e]azulene-9-carboxylic acid monohydrochloride]	< 100
NC(=O)c1ccc2c(C3CCCCC3)c3n(c2c1)CCOc1cc(OCc2cc(N4CCCC4=O)ccc2N2CCOCC2)ccc1-3 [Example 2-47, 12-cyclohexyl-3-[2-(morpholin-4-yl)-5-(2-oxopyrrolidin-1-yl)benzyloxy]-6,7-dihydro-5-oxa-7a-azadibenzo[a,e]azulene-9-carboxamide monohydrochloride]	< 100
O=C(CN1CCn2c(c(C3CCCCC3)c3ccc(C(=O)O)cc32)-c2ccccc21)NCc1ccccc1 [Example 1-25, 5-(benzylcarbamoylmethyl)-13-cyclohexyl-6,7-dihydro-5H-benzo[5,6][1,4]diazepino[7,1-a]indole-10-carboxylic acid]	< 100
O=C(O)c1ccc2c(C3CCCCC3)c3n(c2c1)CCN(CCN1CCCCC1)c1cc(OCc2ccccn2)ccc1-3 [Example 1-595, 13-cyclohexyl-5-[2-(piperidin-1-yl)ethyl]-3-(pyridin-2-ylmethoxy)-6,7-dihydro-5H-benzo[5,6][1,4]diazepino[7,1-a]indole-10-carboxylic acid trihydrochloride]	< 100
CCN1CCCC(CCN2CCn3c(c(C4CCCCC4)c4ccc(C(=O)O)cc43)-c3ccccc32)C1 (stereo not shown) [Example 1-166, 13-cyclohexyl-5-[2-(1-ethylpiperidin-3-yl)ethyl]-6,7-dihydro-5H-benzo[5,6][1,4]diazepino[7,1-a]indole-10-carboxylic acid dihydrochloride]	< 100
CCCN1CCCC(CCN2CCn3c(c(C4CCCCC4)c4ccc(C(=O)O)cc43)-c3ccc(Cl)cc32)C1 (stereo not shown) [Example 1-230, 3-chloro-13-cyclohexyl-5-[2-(1-propylpiperidin-3-yl)ethyl]-6,7-dihydro-5H-benzo[5,6][1,4]diazepino[7,1-a]indole-10-carboxylic acid dihydrochloride]	< 100
CC(C)[C@@H](COc1ccc2c(c1)OCCn1c-2c(C2CCCCC2)c2ccc(C(=O)O)cc21)NC(=O)OC(C)(C)C [Example 2-43, 3-((S)-2-tert-butoxycarbonylamino-3-methylbutoxy)-12-cyclohexyl-6,7-dihydro-5-oxa-7a-azadibenzo[a,e]azulene-9-carboxylic acid]	< 100
COCCCOc1ccc(C[C@H](NC(=O)c2ccc3c(C4CCCCC4)c4n(c3c2)CCOc2cc(OC)ccc2-4)C(=O)OC)cc1 [Example 2-424, methyl (S)-2-[(12-cyclohexyl-3-methoxy-6,7-dihydro-5-oxa-7a-azadibenzo[a,e]azulene-9-carbonyl)amino]-3-[4-(3-methoxypropoxy)phenyl]propionate]	< 100
Cc1ccc2c(c1)N(CCc1ccc(F)cc1)CCn1c-2c(C2CCCCC2)c2ccc(C(=O)O)cc21 [Example 1-581, 13-cyclohexyl-5-[2-(4-fluorophenyl)ethyl]-3-methyl-6,7-dihydro-5H-benzo[5,6][1,4]diazepino[7,1-a]indole-10-carboxylic acid]	< 100
Cc1nc(C(C)(C)NC(=O)c2ccc3c(C4CCCCC4)c4n(c3c2)CCOc2ccccc2-4)n(C)c1C [Example 2-259, N-[1-methyl-1-(1,4,5-trimethyl-1H-imidazol-2-yl)ethyl]-12-cyclohexyl-6,7-dihydro-5-oxa-7a-azadibenzo[a,e]azulene-9-carboxamide]	< 100
